PMC9594048, “Targeting a Multidrug-Resistant Pathogen: First Generation Antagonists of Burkholderia cenocepacia’s BC2L-C Lectin” (ACS Chemical Biology, 2022)
Like-named read-outs stand apart in the source and are kept apart here.

Legend:
BC2L-C-Nt (rBC2L-CN2) [1] = target: T1, BC2L-C-Nt (rBC2L-CN2) (Burkholderia cenocepacia, UniProt B4EH86); assay: Surface plasmon resonance (SPR) affinity on BC2L-C-Nt-coated chip; format: binding; settings: 25 °C, rBC2L-CN2 immobilized on CM5 chip, multi-cycle affinity; SD from duplicates
T1 sequence (B4EH86 entry or part of it): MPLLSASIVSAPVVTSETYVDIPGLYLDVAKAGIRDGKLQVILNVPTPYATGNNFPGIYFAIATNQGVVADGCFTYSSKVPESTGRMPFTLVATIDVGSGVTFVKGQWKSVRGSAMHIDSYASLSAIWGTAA
Method: Experiments were performed on a BIACORE X100 instrument (GE Healthcare) at 25 °C in running buffer 10 mM HEPES pH 7.4, 150 mM NaCl, and 0.05% Tween 20, adjusted to include 8% DMSO when required. rBC2L-CN2 was immobilized onto CM5 chips (BIACORE) following the amine coupling procedure detailed in the Supporting Information. The analytes were dissolved in the running buffer at increasing concentrations (range: 3.28–3500 μM) and subjected to multi-cycle affinity studies (300 s association, 300 s dissociation, flow rate 5 μL/min). Injections of compounds at increasing concentrations onto the immobilized rBC2L-CN2 were followed by regeneration of the surface: 10 mM fucose in running buffer and then running buffer at 5 μL/min (100 and 150 s, respectively) after each analyte association/dissociation. For the higher concentrations, regeneration was secured by performing one or more runs replacing analyte by running buffer. Duplicates were performed for all ligands. Binding affinity (KD) was measured after subtracting the channel 1 reference (no immobilized protein) and subtracting a blank injection (running buffer—zero analyte concentration). Data evaluation and curve fitting were performed using the provided BIACORE X100 evaluation software (version 2.0). The protein-coated chip was stored at 4 °C in running buffer and was functional up to 8 weeks after fabrication, as proven by experimentation. […]
3.2. Surface plasmon Resonance
Experiments were performed on a BIACORE X100 instrument (GE Healthcare) at 25 °C in running buffer 10 mM HEPES pH 7.4, 150 mM NaCl and 0.05% Tween 20, adjusted to include 8% DMSO when indicated. rBC2L-CN2 was immobilized onto CM5 chips (BIACORE) following the amine […]
• Activation of the chip by three injections of a NHS/EDC mixture at 10 μL/min for 540s, until a minimum of 300 RU was observed on both channels.
• Injection of rBC2L-CN2 (0.5 mg/mL) dissolved in 10 mM sodium acetate pH 4.5 onto channel 2 (contact time of 540s, flow rate of 10 μL/min), until a minimum of 7000 RU was […]
• Inactivation of both channels by injecting a 1M ethanolamine (pH 8.5) solution at 5 μL/min for 1080s, achieving over 400 and 7000 RU for channel 1 and 2, respectively.
The analytes were dissolved in the running buffer at increasing concentrations (range: 3.28 − 3500 μM) and subjected to multi-cycle affinity studies (300s association, 300s dissociation, flow rate 5 μL/min). Injections of compounds at increasing concentrations onto the immobilized rBC2L-CN2 were followed by regeneration of the surface: 10 mM fucose in running buffer, then running buffer at 5 μL/min (100s and 150s, respectively) after each analyte association/dissociation. For the higher concentrations, regeneration was secured by performing one or more runs replacing analyte by running buffer. Duplicates were performed for all ligands. Binding affinity (KD) was measured after subtracting the channel 1 reference (no immobilized protein) and subtracting of a blank injection (running buffer - zero analyte concentration). Data evaluation and curve fitting was performed using the provided BIACORE X100 evaluation software (version 2.0). […]

BC2L-C-Nt (rBC2L-CN2) [2] = target: T1, BC2L-C-Nt (rBC2L-CN2); assay: Isothermal titration calorimetry (ITC); format: binding; settings: for Kd: 25 °C
Method: All experiments were performed at 25 °C with an ITC200 isothermal titration calorimeter (Microcal-Malvern Panalytical, Orsay, France). The protein rBC2L-CN2 and its ligands were dissolved in a buffer composed of 20 mM Tris HCl pH 7.0 and 100 mM NaCl. The 200 μL sample cell containing rBC2L-CN (concentrations ranging from 200 to 400 μM) was subjected to injections of ligand solution: 20 to 39 injections of 1 μL or 70 injections of 0.5 μL (5 to 50 mM, chosen depending on the ligand) at intervals of 100, 120, or 200 s, while stirring at 850 rpm. Control experiments were performed by repeating the same protocol, but injecting the ligand into buffer solution. The supplied software Origin 7 or MicroCal PEAQ-ITC was used to fit the experimental data to a theoretical titration curve allowing the determination of affinity.
3. Ligand evaluation materials and methods
3.1. Isothermal Titration Calorimetry
All experiments were performed at 25 °C with an ITC200 isothermal titration calorimeter (Microcal - Malvern Panalytical, Orsay, France). The protein rBC2L -CN2 and its ligands were dissolved in a buffer composed of 20 mM Tris HCl pH 7.0 and 100 mM NaCl. The 200 µL sample cell containing rBC2L-CN (concentrations ranging from 200 to 400 µM) was subjected to injections of ligand solution: 20 to 39 injections of 1 µL or 70 injections of 0.5 µL (5 to 50 mM, chosen depending on the ligand) at intervals of 100, 120 or 200s while stirring at 850 rpm. Control experiments were performed by repeating the same protocol, but injecting the ligand into buffer solution. The supplied software Origin 7 or MicroCal PEAQ-ITC was used to fit the experimental data to a t heoretical titration curve allowing the determination of affinity (i.e., association constant, K a), binding enthalpy (∆H), and stoichiometry (n). Values for free energy change (∆G) and entropy contributions (T∆S) […]
1.K-1. For experiments in ligand excess, the stoichiometry was fixed to 1. […]

BC2L-C-Nt (rBC2L-CN2) [3] = target: T1, BC2L-C-Nt (rBC2L-CN2); assay: biochemical; format: binding; settings: for Tonset / Tm1 / Tm2: protein 14.3 μM, ligand 143 μM; for Tonset: SD from duplicates; for Tm1: first thermal event, protein alone 82.2 °C; for Tm2: main thermal event, protein alone 84.5 °C; for ΔTm2: shift of main thermal event vs protein alone
Method: Experiments were performed on a Microcal PEAQ-DSC instrument (Malvern Panalytical, Orsay, France). A buffer composed of 20 mM Tris HCl pH 7.0 and 100 mM NaCl was used to dilute the protein rBC2L-CN2 and its ligands to concentrations 14.3 and 143 μM, respectively. Samples of 250 μL were loaded, while the reference cell was filled with the matching buffer (aforementioned buffer, ligands when relevant). […] The data were acquired on “Low” feedback mode. The supplied software MicroCal PEAQ-DSC Software 1.53 was used to fit the experimental data. […] The profile obtained was fitted with a “NonTwoState” model, accounting for two thermal events. Each experiment was performed in duplicates, and their averages were calculated by the software.
3. […]
3.3. Differential Scanning Calorimetry
Experiments were performed on a Microcal PEAQ-DSC instrument (Malvern Panalytical, Orsay, […]

[4] = Solubility (qualitative remark); format: physicochemical; settings: prevented affinity evaluation by ITC
[5] = 20 mM Tris HCl pH 7.0, 100 mM NaCl, SD from duplicates

SMILES | Kd (BC2L-C-Nt (rBC2L-CN2) [1]) [µM] | Kd (BC2L-C-Nt (rBC2L-CN2) [2]; [5]) [µM] | further results
C[C@@H]1O[C@H](NC(=O)c2ccc3[nH]ccc3c2)[C@@H](O)[C@H](O)[C@@H]1O [8e] | 1420 ± 20 |  | activity compared with methyl-fucoside 13 (ITC) (BC2L-C-Nt (rBC2L-CN2) [2]; ITC KD compared with […]): better activity than methyl-fucoside 13
CNCc1ccc(-c2cn([C@H]3O[C@@H](C)[C@@H](O)[C@@H](O)[C@@H]3O)nn2)cc1 [12b] | 2450 ± 20 | 6250 ± 720 | 
CNCc1ccc(C(=O)N[C@H]2O[C@@H](C)[C@@H](O)[C@@H](O)[C@@H]2O)cc1 [8b] | 1570 ± 60 | 3660 ± 210 | 
CNCc1ccc(/C=C/[C@H]2O[C@@H](C)[C@@H](O)[C@@H](O)[C@@H]2O)cc1 [28b] | 1020 ± 20 | 3370 ± 400 | 
C[C@@H]1O[C@H](NC(=O)c2ccc(C(C)(C)CN)cc2)[C@@H](O)[C@H](O)[C@@H]1O [8a] | 940 ± 10 | 2550 ± 1000 | 
C[C@@H]1O[C@H](C#Cc2ccc(C(C)(C)CN)cc2)[C@@H](O)[C@H](O)[C@@H]1O [22a] | 1330 ± 150 | 280 ± 10 | Kd (BC2L-C-Nt (rBC2L-CN2) [2]): 281 µM; affinity increase from αMeFuc (ITC) (BC2L-C-Nt (rBC2L-CN2) [2]; relative to […]): ~10 fold; Tonset (BC2L-C-Nt (rBC2L-CN2) [3]): 73.29 ± 1.54 °C; Tm1 (BC2L-C-Nt (rBC2L-CN2) [3]): 82.43 ± 0.02 °C; Tm2 (BC2L-C-Nt (rBC2L-CN2) [3]): 84.71 ± 0.01 °C; ΔTm at 143 µM (BC2L-C-Nt (rBC2L-CN2) [3]; read-out: ΔTm1): 0.21 °C; ΔTm at 143 µM (BC2L-C-Nt (rBC2L-CN2) [3]; read-out: ΔTm2): 0.17 °C
C[C@@H]1O[C@H](C#Cc2ccc(CNC(=N)N)cc2)[C@@H](O)[C@H](O)[C@@H]1O [22g] | 1300 ± 600 | 910 ± 30 | 
C[C@@H]1O[C@H](NC(=O)c2ccc(-c3cccc(N)c3)o2)[C@@H](O)[C@H](O)[C@@H]1O [8c] | 2360 ± 970 |  | solubility [4]: very low and poor
CC(=O)N[C@H]1C(O)O[C@H](CO)[C@@H](O)[C@@H]1O[C@@H]1O[C@H](CO)[C@H](O)[C@H](O)[C@H]1O[C@@H]1O[C@@H](C)[C@@H](O)[C@@H](O)[C@@H]1O (stereo partly shown) [H-type 1 trisaccharide, Fucα(1–2)Galβ(1–3)GlcNAc] |  |  | Tonset (BC2L-C-Nt (rBC2L-CN2) [3]): 74.09 ± 0.26 °C; Tm1 (BC2L-C-Nt (rBC2L-CN2) [3]): 82.65 ± 0.01 °C; Tm2 (BC2L-C-Nt (rBC2L-CN2) [3]): 84.92 ± 0.01 °C; ΔTm1 (BC2L-C-Nt (rBC2L-CN2) [3]; shift of first thermal event vs protein alone): 0.44 °C; ΔTm2 (BC2L-C-Nt (rBC2L-CN2) [3]): +0.38 °C; ΔTm2 (BC2L-C-Nt (rBC2L-CN2) [3]; listed as H-type 1): 0.38 ± 0.01 °C
C[C@@H]1O[C@H](C#CC(O)c2ccc3ncccc3c2)[C@@H](O)[C@H](O)[C@@H]1O (stereo partly shown) [22f] | 301 ± 1 |  | Kd (BC2L-C-Nt (rBC2L-CN2) [2]): 490 µM
CNCc1ccc(C#C[C@H]2O[C@@H](C)[C@@H](O)[C@@H](O)[C@@H]2O)cc1 [22b] | 7850 ± 3390 | 1240 ± 70 | 
C[C@@H]1O[C@H](NC(=O)c2ccc3cc[nH]c3c2)[C@@H](O)[C@H](O)[C@@H]1O [8d] | 3420 ± 220 | 3490 ± 1300 | 
C[C@@H]1O[C@H](n2cc(-c3ccc(C(C)(C)CN)cc3)nn2)[C@@H](O)[C@H](O)[C@@H]1O [12a] | 1190 ± 50 | 2490 ± 60 | 
